Experimental findings from patent publication US20250339442A1, “METHODS OF TREATMENT USING A DUAL SPECIFICITY TYROSINE-PHOSPHORYLATION-REGULATED KINASE 1A (DYRK1A) INHIBITOR” (Fresh Tracks Therapeutics, Inc., priority 2022, published 2025) are described below.

The subject of test [1] is IMQ-induced psoriasis-like inflammation. Put plainly: Imiquimod (IMQ)-induced psoriasis-like dermal inflammation. It counts as in vivo. The settings on record: BALB/c mice. An excerpt:
The anti-inflammatory activity of Compound A in the imiquimod (IMQ)-induced psoriasis-like dermal inflammation in BALB/c mice was investigated.

The test system of test [2] is Collagen-Induced Arthritis. Put plainly: Collagen-Induced Arthritis Model. It counts as in vivo, DBA/1 mice. The following applies: 60 mg/kg once daily, vs vehicle only treated animals. The method, then:
Furthermore, the efficacy of Compound A in the Collagen-Induced Arthritis Model in DBA/1 mice was tested. Immunization with Type II Chicken Collagen led to the development of arthritis. In comparison with vehicle only treated animals, mice treated once daily with 60 mg/kg Compound A led to a reduction in arthritis index scores, paw measurements, and histopathology scores.

Test [3] relates to house dust-induced atopic dermatitis. Put plainly: House dust-induced atopic dermatitis model. In kind it is in vivo, mice. The source says:
The potential anti-inflammatory and anti-pruritic effects of Compound A were investigated in a house dust-induced atopic dermatitis model in mice.

The subject of a further test is CD4+ T cells. Put plainly: Differentiation of CD4+ T cells (Th1, Th17, Treg). In kind it is cell-based. An excerpt:
Th1 and Th17 cells are main players contributing to organ specific autoimmune disease and inflammation.

The test system of test [4] is PBMCs from subjects with ulcerative colitis. In words: Pro-inflammatory cytokine expression in PBMCs from subjects with ulcerative colitis (cytometric bead array). It counts as cell-based, human. An excerpt: The anti-inflammatory effect of Compound A in PBMCs from subjects with ulcerative colitis was studied. The expression of pro-inflammatory cytokines IL-1β, IL 6, IL-8, IL-10 and TNF-α was investigated using a cytometric bead array (CBA).

[5] abbreviates: oral 30 mg/kg/day QD or BID x 21 days, in comparison with controls.

The structures appear in SMILES notation. “Also recorded” adds a separate entry of the source.

For the compound `CCNc1cc(Nc2ccc(C(=O)N3CCC(N4CCOCC4)CC3)cc2OC)nc2[nH]cc(C(F)(F)F)c12` [Compound A, (4-((4-(ethylamino)-3-(trifluoromethyl)-1H-pyrrolo[2,3-b]pyridin-6-yl)amino)-3-methoxyphenyl)(4-morpholinopiperidin-1-yl)methanone], the “IMQ-induced psoriasis-like inflammation (ear swelling)” value in test [1] (45 mg/kg PO BID x 9 days) is reported as “significantly (p<0.05) protective effects”. Also, the “IMQ-induced psoriasis-like inflammation (ear swelling)” value in test [1] (60 mg/kg PO BID x 9 days) is recorded as “significantly (p<0.05) protective effects”. In addition, in test [2], the arthritis index scores result is given as “reduction”, the histopathology scores result is on record as “reduction” and the paw measurements result was “reduction”. In addition, in test [3] (in comparison with vehicle controls and the positive control abrocitinib), the “T cell subset levels in the skin (immunohistochemical staining)” value is “decreased all subset levels in the skin”. For the same compound, in test [3] (setting [5]), the “IL-4 level in the skin” value is on record as “markedly reduced”, the “IL-13 level in the skin” value is listed as “markedly reduced” and the “IL-17 level in the skin” value is reported as “markedly reduced”. Also, in the test with CD4+ T cells, the “development of Treg cells” value is reported as “enhanced the development of Treg cells; also recorded: enhancing the development of Treg cells”; the “differentiation of Th1 and Th17 cells” value is “inhibiting the differentiation of Th1 and Th17 cells; also recorded: inhibition of Th1 and Th7 cells”. Moreover, the “expression of pro-inflammatory cytokines IL-1β, IL 6, IL-8, IL-10 and TNF-α” value in test [4] is recorded as “reducing pro inflammatory cytokines in PBMCs; also recorded: statistically significant reduction”.
